{
  "source": "paper PMC9574862",
  "about": "“Designing Soluble PROTACs: Strategies and Preliminary Guidelines” (Journal of Medicinal Chemistry, 2022)",
  "key": {"physchem": {"assay": "physchem", "conditions": "for chromatographic logD: pH 7", "description": "PROTAC experimental solubility was first correlated with lipophilicity descriptors (log P is implemented in the general solubility equation (GSE)[27]). As described by some of us,[16] BRlogD represents a validated,[28] very useful and straightforward chromatographic descriptor for the logarithm of the distribution coefficient in the n-octanol/water system (log D) of neutral and cationic bRo5 molecules.\nThe mobile phase consisted of an isocratic solution of 20 mM ammonium acetate (pH 7.0) and acetonitrile, 40–60%, respectively (v/v).[16] Samples were dissolved in buffer/ACN and injected into the XBridge column at a flow rate of 1.0 mL/min at 30 °C. Retention times were determined in duplicate, and the dead time, t0, was recorded as the baseline disturbance."}, "[1]": {"conditions": "log kw^IAM – clog kw^IAM", "description": "Since polarity is a molecular property often related to solubility,[13] experimental descriptors of polarity (Δ log kw^IAM and EPSA) were also determined. Introduced by Grumetto in 2012,[30] Δ log kw^IAM is the difference between the experimental log kw^IAM and the value expected for neutral analytes with a zero value of polar surface area (which depends on the experimental measurement of the n-octanol partition coefficient[31]). EPSA quantifies the polarity of a molecule using a supercritical fluid chromatographic (SFC) method.[32]"}, "[2]": {"assay": "Thermodynamic solubility, shake-flask, 10 mM PBS (0.15 M KCl) pH 7, 25 °C, 1 h, HPLC-UV", "conditions": "pH 7, 25 °C; for solubility at 1 h: 25 °C, pH 7, aqueous buffer, thermodynamic from solid", "description": "Its measurement only requires an initial DMSO stock solution which is precipitated by the addition of an aqueous phase.[23],[24] Here, we measured thermodynamic solubility, often determined in late lead optimization, which efficiently considers the solubility value when the equilibrium with the stable phase or polymorph has been reached.\nSolubility was determined in 10 mM PBS (0.15 M KCl) at pH 7, 25 °C. A 1–2 mg sample of each molecule was added to the same quantity (1–2 mL) of the mentioned buffer to obtain 1 mg/mL solutions in the vial. Samples were then submitted to 25 °C and magnetic stirring (500 rpm) for 1 h. After this period, solutions or suspensions were filtered through the 0.45 μm membrane pore and diluted with buffer, 10 mM PBS (0.15 M KCl). The amount of dissolved compound in each sample was then quantified, in duplicate, via HPLC using ultraviolet (UV) spectrometric detection.\nVariable volumes of pure DMSO (0–100 μL) were added separately to small and defined (1 mg) quantities of each compound to obtain clear solutions. […] Afterward, 5% DMSO 10 mM PBS (0.15 M KCl) was added until the suspensions or precipitations were redissolved, to render clear solutions. As soon as solutions were obtained, they were used as mother solutions for the performance of 5–10 point calibration curves with serial buffer dilutions (1:1; v/v) 5% DMSO 10 mM PBS (0.15 M KCl). Calibration points were then measured via HPLC-UV.\nThe mobile phase consisted of a solution of acetonitrile (ACN) and 20 mM ammonium acetate buffer (AAB), pH 7, freshly prepared. A 10 μL volume of each sample (volume of injection) was injected at an isocratic 1 mL/min flow rate analyzed at 30 °C (oven temperature). Solubility determination of each compound required a specific HPLC method. Settings are collected in Table S11 (PROTACs) and Table S10 (building blocks).\nInjections were performed in duplicate for each molecule’s calibration points. The retention time and area under the curve (AUC in absorbance units) were collected, and the average was calculated. The AUC average (y-axis) was plotted versus theoretical concentration (mg/mL; x-axis) to obtain a calibration curve for each molecule. Correlation equations and coefficients (R^2) were efficiently calculated for each compound (Table S12 for PROTACs and Table S10 for building blocks). Samples were then injected in duplicate, and the AUC averages and standard deviations were calculated. Finally, the absorbance averages were interpolated into the corresponding equations, extracting the final solubility values with their standard deviation, after dilution factor corrections."}, "[3]": {"conditions": "pH 7.0, extrapolated to 0% acetonitrile", "description": "The logarithm of the capacity factor of an IAM column system, extrapolated at 100% water (log kw^IAM), is also an experimental descriptor of the lipophilicity of drugs since it mimics the interaction between the polar heads of the membrane phospholipids and the drug in solution.[29]\nThe mobile phase consisted of a solution of 20 mM ammonium acetate (pH 7.0) in a mixture with acetonitrile at various percentages (from 10 to 50%, v/v). Samples were dissolved in buffer/ACN and injected into the previously mentioned IAM column at a flow rate of 1.0 mL/min at 30 °C. Chromatographic retention data were determined in duplicate for the different mobile phase conditions. Data were recorded as log k′ (capacity factor k′ = [tR – t0]/t0), where tR and t0 are the retention times of the sample and a nonretained molecule (citric acid), respectively. Thus, log kw^IAM values were calculated by an extrapolation method of the experimental equation, at 0% acetonitrile. Moreover, five gold standard compounds (caffeine, carbamazepine, ketoprofen, theobromine, and toluene) were checked daily."}, "[4]": {"assay": "pKa determination by potentiometry (SiriusT3)", "conditions": "for Ionization state at pH 7: experimental", "description": "Solids were weighed with a Sartorius Entris224-1S Analytical (www.sartorius.com). pKa values were measured with a SiriusT3 instrument (Sirius Analytical Instruments) equipped with a reference pH electrode (Ag/AgCl double junction) and a turbidity detector. Ultrasonic cleaner, obtained from VWR Chemicals (www.vwr.com), and an IKA VORTEX 3 (www.ika.com) were used to avoid precipitation in the calibration points. Stirring and heating were provided by magnetic and heating plates C-MAG MS 7 and IKA ETS-D5, respectively (www.ika.com). Moreover, pH was measured with a Eutech pH Meter 2700 (www.fishersci.com). Analyses were carried out by high-performance liquid chromatography (HPLC; DIONEX Ultimate 3000, Thermo Scientific Inc.) provided with an RS diode array and Chromeleon 7.2.10 software (www.thermofisher.com). HPLC columns IAM.PC.DD2 (300 Å, 10 μm, 10 cm × 4.6 mm) from REGIS and XBridge Shield RP18 (130 Å, 5 μm, 5 cm × 4.6 mm) from Waters (www.waters.com) were used. Ergonomic high-performance single-channel variable volume pipettors, HPLC 1.5 mL vials, 0.1 mL microinsert, and PP 9 mm screw caps were obtained from VWR Signature. EPSA analyses were performed by supercritical fluid chromatography (SFC; JASCO SFC-4000, Jasco Europe srl), provided with a diode array and ChromNAV 2.04.00 software (www.jascoweb.com). The SFC column Chirex 3014 (S)-VAL and (R)-NEA (100 Å, 5 μm, 25 cm × 4.6 mm) from Phenomenex was used.\nAcidic dissociation constants of pomalidomide, S,R,S-AHPC HCl, and S,S,S-AHPC 2HCl were measured potentiometrically. Titrations were performed to 0.15 M KCl sample solutions under a nitrogen atmosphere at 25 ± 1 °C. Moreover, standardized 0.5 M KOH and 0.5 M HCl were used as titration reagents (solutions were prepared from Titrisol (Merck) concentrated solutions).[45]"}, "[5]": {"conditions": "Exp.LogS, PROTAC pairs and building blocks"}},
  "data": [
    {"compound": "Cc1sc2c(c1C)C(c1ccc(Cl)cc1)=N[C@@H](CC(=O)O)c1nnc(C)n1-2", "note": "[JQ1 carboxylic acid]", "values": [
      {"measurement": "chromatographic logD", "setting": "physchem", "value": 0.08},
      {"measurement": "ΔLog kw IAM", "setting": "[1]", "value": 1.76},
      {"measurement": "solubility at 1 h", "setting": "[2]; [5]", "value": "> 2510", "unit": "µM"},
      {"measurement": "Log kw IAM", "setting": "[3]", "value": 0.80}
    ]},
    {"compound": "CC(=O)N1c2ccc(-c3ccc(C(=O)O)cc3)cc2[C@H](Nc2ccc(Cl)cc2)C[C@@H]1C", "note": "[I-BET726]", "values": [
      {"measurement": "chromatographic logD", "setting": "physchem", "value": 0.3},
      {"measurement": "ΔLog kw IAM", "setting": "[1]", "value": 2.64},
      {"measurement": "solubility at 1 h", "setting": "[2]; [5]", "value": 60.3, "unit": "µM"},
      {"measurement": "Log kw IAM", "setting": "[3]", "value": 1.88}
    ]},
    {"compound": "Nc1cccc2c1C(=O)N(C1CCC(=O)NC1=O)C2=O", "note": "(centres unmarked) [Pomalidomide]", "values": [
      {"measurement": "BRlogD", "setting": "physchem; pH 7.0", "value": 1.41},
      {"measurement": "ΔLog kw IAM", "setting": "[1]", "value": 0.64},
      {"measurement": "solubility at 1 h", "setting": "[2]; [5]", "value": 36.3, "unit": "µM"},
      {"measurement": "Log kw IAM", "setting": "[3]", "value": 0.91},
      {"measurement": "Experimental pKa (2-12)", "setting": "[4]; 0.15 M KCl, 25 °C, (b) = basic", "value": "Not ionizable"},
      {"measurement": "Ionization state at pH 7", "setting": "[4]", "value": "Neutral"},
      {"measurement": "Ionization state at pH 7", "setting": "[4]; listed as pomalidomide", "value": "not ionized"}
    ]},
    {"compound": "Cc1ncsc1-c1ccc(CNC(=O)[C@@H]2C[C@@H](O)CN2C(=O)[C@@H](N)C(C)(C)C)cc1.Cl", "note": "[S,R,S-AHPC HCl]", "values": [
      {"measurement": "chromatographic logD", "setting": "physchem", "value": 0.56},
      {"measurement": "ΔLog kw IAM", "setting": "[1]", "value": 2.34},
      {"measurement": "solubility at 1 h", "setting": "[2]; [5]", "value": 2090, "unit": "µM"},
      {"measurement": "Log kw IAM", "setting": "[3]", "value": 1.83}
    ]},
    {"compound": "Cc1ncsc1-c1ccc(CNC(=O)[C@@H]2C[C@H](O)CN2C(=O)[C@@H](N)C(C)(C)C)cc1.Cl.Cl", "note": "[S,S,S-AHPC 2HCl]", "values": [
      {"measurement": "chromatographic logD", "setting": "physchem", "value": 0.91},
      {"measurement": "ΔLog kw IAM", "setting": "[1]", "value": 2.05},
      {"measurement": "solubility at 1 h", "setting": "[2]; [5]", "value": 2040, "unit": "µM"},
      {"measurement": "Log kw IAM", "setting": "[3]", "value": 1.86}
    ]},
    {"compound": "COc1cc(C(=O)NC2CCN(C)CC2)ccc1Nc1ncc(C(F)(F)F)c(Oc2cccc3c2C(=O)CC3)n1", "note": "[BI-4464]", "values": [
      {"measurement": "chromatographic logD", "setting": "physchem", "value": 1.79},
      {"measurement": "ΔLog kw IAM", "setting": "[1]", "value": 1.23},
      {"measurement": "solubility at 1 h", "setting": "[2]; [5]", "value": 64.6, "unit": "µM"},
      {"measurement": "Log kw IAM", "setting": "[3]", "value": 1.84}
    ]},
    {"compound": "Cc1ncsc1-c1ccc(CNC(=O)[C@@H]2C[C@@H](O)CN2C(=O)[C@@H](NC(=O)COCCOCCOCCOCCOCCOCC(=O)N[C@H](C(=O)N2C[C@H](O)C[C@H]2C(=O)NCc2ccc(-c3scnc3C)cc2)C(C)(C)C)C(C)(C)C)cc1", "note": "[CM11]", "values": [
      {"measurement": "ΔLog kw IAM", "setting": "[1]", "value": "high"},
      {"measurement": "solubility at 1 h", "setting": "[2]; Solubility average, thermodynamic, shake-flask, 1 h", "value": 631, "unit": "µM"},
      {"measurement": "solubility at 1 h", "setting": "[2]; Solubility log S, Table S-3", "value": 631, "unit": "µM"},
      {"measurement": "solubility at 1 h", "setting": "[2]; Solubility, Table S-3", "value": 730, "unit": "µg/mL"},
      {"measurement": "Classification (GSK guidelines)", "setting": "[2]; solubility class", "value": "High (> 200 μM) (High (> 200 μM))"}
    ]}
  ]
}
